Tests used:
[1] = Study 2: tolerability of CR formulation; format: in vivo, human; details: Study 2, CR formulation titrated from 4 mg to 24 mg and from 8 mg to 48 mg
Method: (§1) Study 2 was designed similarly to Study 1; participants were administered CR Release formulations of Compound A/placebo as monotherapy in participants with schizophrenia (n=16) and healthy participants (n=16), or as adjunctive therapy (n=17) (schizophrenia participants only) and titrated from 4 mg to 24 mg (see Table 3 for illustration of PK at the 24 mg dose level as monotherapy in healthy adults). In Study 2 an additional panel of participants with schizophrenia was administered CR formulations of Compound A/placebo as monotherapy and titrated from 8 mg to 48 mg (n=26)(see Table 4 for illustration of PK at the 48 mg dose level).

[2] = Study 7: tolerability in healthy subjects 8-72 mg; format: in vivo, human; details: Study 7, healthy subjects (n=12) dosed 8 mg to 72 mg; up to and including doses of 48 mg
From the text: Plasma exposures in this study were generally similar those observed in the other multiple dose studies reported here (data not shown).

[3] = Study 2: multiple-dose titration study, PK of CR formulation; format: in vivo; details: human, plasma, oral, highest dose level in Study 2 (48 mg, CR formulation, schizophrenia)
Method: as §1

[4] = Study 3: tolerability / adverse events of CR formulation; format: in vivo, human
Method: In Study 3, one panel of participants [(n=8)—monotherapy in adult participants with schizophrenia] were titrated from 16 mg to 24 mg or placebo, while in another panel participants (n=18) received 24 mg/placebo without titration (Table 5) to determine if titration was required for tolerability.
There were 2 events of transient dystonia following the first dose of 16 mg, but both events responded to treatment and participants continued dosing without recurrence. […] Other adverse events (i.e., depression, anxiety and stress) across all three studies were mostly mild or moderate in intensity and there was no clear dose-related increase in specific events (Table 6).

[5] = 24 mg (Day 1-7), Panel B, participants with schizophrenia, 14 in population

Cc1ccc([C@H]2C[C@@H]2COc2cc(NCc3nnc(C)s3)nc(C)n2)nc1 [Compound A, 2-methyl-N-((5-methyl-1,3,4-thiadiazol-2-yl)methyl)-6-(((1S,2S)-2-(5-methylpyridin-2-yl)cyclopropyl)methoxy)pyrimidin-4-amine]
dystonia [1]: no Compound A-related dystonia was observed | dystonia [2]: no dystonia was reported | Cmax [3]: ~1800 nM | concentration at 24 h ([3]; read-out: C24): ~1200 nM | Alanine aminotransferase increased, (%) [4, 5]: (7.1) % | Decreased appetite, (%) [4, 5]: (7.1) % | Hypertonia, (%) [4, 5]: (7.1) % | Investigations (non-serious related AE), (%) [4, 5]: (7.1) % | Metabolism and nutrition disorders, (%) [4, 5]: (7.1) % | Musculoskeletal and connective tissue disorders, (%) [4, 5]: (7.1) % | Musculoskeletal stiffness, (%) [4, 5]: (7.1) % | Nervous system disorders, (%) [4, 5]: (21.4) % | Participants with no Non-Serious Related Adverse Event, (%) [4, 5]: (64.3) % | Participants with one or more Non-Serious Related Adverse Event, (%) [4, 5]: (35.7) % | Somnolence, (%) [4, 5]: (14.3) % | tolerability ([4]; Study 3, dosing initiated at 16 mg or 24 mg with no titration): generally well tolerated | dystonia ([4]; Study 3, dosing initiated at 24 mg without titration): No events of dystonia were reported | events of transient dystonia ([4]; Study 3, following the first dose of 16 mg): 2

Reference: patent publication US20260248789A1, “CONTROLLED RELEASE PDE10A FORMULATIONS” (Merck Sharp & Dohme LLC, priority 2023, published 2026)
